# What was measured:
# Type in all cases: in vivo
# [1] = system: pigweed (Amaranthus retroflexus); experiment: Test A postemergence; conditions: Amaranthus retroflexus, post-emergence, 240 h, Postemergence
# Procedure, shortened: (§1)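 In a loam soil and sand blend, planted seeds got a preemergence directed soil spray, and young plants at the one- to two-leaf stage, 2–10 cm high, got a postemergence application; ~10 d greenhouse hold; injury rated visually, 0 = none, 100 = complete control.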
# corn (Zea mays) = experiment: Test A postemergence; conditions: Zea mays, post-emergence, 240 h, Postemergence
# Procedure, shortened: as §1
# [2] = system: barnyardgrass (Echinochloa crus-galli); experiment: Test A postemergence; conditions: Echinochloa crus-galli, post-emergence, 240 h, Postemergence
# Procedure, shortened: as §1
# [3] = system: ryegrass, Italian (Italian ryegrass, Lolium multiflorum); experiment: Test A postemergence; conditions: Lolium multiflorum, post-emergence, 240 h, Postemergence
# Procedure, shortened: as §1
# [4] = system: Galium (catchweed bedstraw, Galium aparine); experiment: Test A postemergence; conditions: Galium, post-emergence, 240 h, Postemergence
# Procedure, shortened: as §1
# [5] = system: giant foxtail (Setaria faberii); experiment: Test A postemergence; conditions: Setaria faberi, post-emergence, 240 h, Postemergence
# Procedure, shortened: as §1
# [6] = system: ragweed (common ragweed, Ambrosia elatior); experiment: Test A postemergence; conditions: Ambrosia artemisiifolia, post-emergence, 240 h, Postemergence
# Procedure, shortened: as §1
# [7] = system: blackgrass (Alopecurus myosuroides); experiment: Test A postemergence; conditions: Alopecurus myosuroides, post-emergence, 240 h, Postemergence
# Procedure, shortened: as §1
# [8] = system: wheat (Triticum aestivum); experiment: Test A postemergence; conditions: Triticum aestivum, post-emergence, 240 h, Postemergence
# Procedure, shortened: as §1
# Kochia (Kochia scoparia) [9] = experiment: Test A postemergence; conditions: Bassia scoparia, post-emergence, 240 h, Postemergence
# Procedure, shortened: as §1
# [10] = system: pigweed (Amaranthus retroflexus); experiment: Test A preemergence; conditions: Amaranthus retroflexus, pre-emergence, 240 h
# [11] = system: barnyardgrass (Echinochloa crus-galli); experiment: Test A preemergence; conditions: Echinochloa crus-galli, pre-emergence, 240 h
# Procedure, shortened: as §1
# [12] = system: ryegrass, Italian (Italian ryegrass, Lolium multiflorum); experiment: Test A preemergence; conditions: Lolium multiflorum, pre-emergence, 240 h
# Procedure, shortened: as §1
# [13] = system: giant foxtail (Setaria faberii); experiment: Test A preemergence; conditions: Setaria faberi, pre-emergence, 240 h
# Procedure, shortened: as §1
# [14] = system: ragweed (common ragweed, Ambrosia elatior); experiment: Test A preemergence; conditions: Ambrosia artemisiifolia, pre-emergence, 240 h
# Procedure, shortened: as §1
# Kochia (Kochia scoparia) [15] = experiment: Test A preemergence; conditions: Bassia scoparia, pre-emergence, 240 h
# Procedure, shortened: as §1
compound,measurement,setting,value
Cc1cc(F)cc([C@H]2CNC(=O)[C@@H]2C(=O)Nc2cccc(F)c2F)c1 [Compound 1309],pest or weed control at 125 g/ha,"[1]; 125 g ai/ha, visual rating about 10 d after treatment, read-out: Pigweed plant response rating (0 to 100 scale)",0%
same,pest or weed control at 500 g/ha,"[1]; 500 g ai/ha, visual injury, 0 to 100 scale (0 no effect, 100 complete control), approx. 10 d, read-out: Plant response rating, Pigweed",0%
same,plant injury at 125 g/ha,"corn (Zea mays); 125 g ai/ha, visual rating about 10 d after treatment, read-out: Corn plant response rating (0 to 100 scale)",0%
same,"Corn plant response rating (crop injury, 0 = no effect, 100 = complete kill) at 500 g/ha","corn (Zea mays); 500 g ai/ha, visual injury, 0 to 100 scale (0 no effect, 100 complete control), approx. 10 d",20%
same,pest or weed control at 125 g/ha,"[2]; 125 g ai/ha, visual rating about 10 d after treatment, read-out: Barnyardgrass plant response rating (0 to 100 scale, 0 no effect, 100 complete control)",90%
same,pest or weed control at 500 g/ha,"[2]; 500 g ai/ha, visual injury, 0 to 100 scale (0 no effect, 100 complete control), approx. 10 d, read-out: Plant response rating, Barnyardgrass",90%
same,pest or weed control at 125 g/ha,"[3]; 125 g ai/ha, visual rating about 10 d after treatment, read-out: Ryegrass, Italian plant response rating (0 to 100 scale)",0%
same,pest or weed control at 500 g/ha,"[3]; 500 g ai/ha, visual injury, 0 to 100 scale (0 no effect, 100 complete control), approx. 10 d, read-out: Plant response rating, Ryegrass, Italian",20%
same,pest or weed control at 125 g/ha,"[4]; 125 g ai/ha, visual rating about 10 d after treatment, read-out: Galium plant response rating (0 to 100 scale)",30%
same,pest or weed control at 500 g/ha,"[4]; 500 g ai/ha, visual injury, 0 to 100 scale (0 no effect, 100 complete control), approx. 10 d, read-out: Plant response rating, Galium",50%
same,pest or weed control at 125 g/ha,"[5]; 125 g ai/ha, visual rating about 10 d after treatment, read-out: Foxtail, Giant plant response rating (0 to 100 scale)",30%
same,pest or weed control at 500 g/ha,"[5]; 500 g ai/ha, visual injury, 0 to 100 scale (0 no effect, 100 complete control), approx. 10 d, read-out: Plant response rating, Foxtail, Giant",70%
same,pest or weed control at 125 g/ha,"[6]; 125 g ai/ha, visual rating about 10 d after treatment, read-out: Ragweed plant response rating (0 to 100 scale)",0%
same,pest or weed control at 500 g/ha,"[6]; 500 g ai/ha, visual injury, 0 to 100 scale (0 no effect, 100 complete control), approx. 10 d, read-out: Plant response rating, Ragweed",30%
same,pest or weed control at 125 g/ha,"[7]; 125 g ai/ha, visual rating about 10 d after treatment, read-out: Blackgrass plant response rating (0 to 100 scale)",0%
same,pest or weed control at 500 g/ha,"[7]; 500 g ai/ha, visual injury, 0 to 100 scale (0 no effect, 100 complete control), approx. 10 d, read-out: Plant response rating, Blackgrass",60%
same,plant injury at 125 g/ha,"[8]; 125 g ai/ha, visual rating about 10 d after treatment, read-out: Wheat plant response rating (0 to 100 scale)",20%
same,plant injury at 500 g/ha,"[8]; 500 g ai/ha, visual injury, 0 to 100 scale (0 no effect, 100 complete control), approx. 10 d, read-out: Plant response rating, Wheat",20%
same,pest or weed control at 125 g/ha,"Kochia (Kochia scoparia) [9]; 125 g ai/ha, visual rating about 10 d after treatment, read-out: Kochia plant response rating (0 to 100 scale)",0%
same,pest or weed control at 500 g/ha,"Kochia (Kochia scoparia) [9]; 500 g ai/ha, visual injury, 0 to 100 scale (0 no effect, 100 complete control), approx. 10 d, read-out: Plant response rating, Kochia",50%
same,pest or weed control at 500 g/ha,"[10]; 500 g ai/ha, preemergence, 0 to 100 scale where 0 is no effect and 100 is complete control, read-out: Pigweed plant response rating",20%
same,pest or weed control at 125 g/ha,"[10]; Preemergence, 125 g ai/ha, 0 to 100 scale (0 no effect, 100 complete control), read-out: Plant response rating, Pigweed",0%
same,pest or weed control at 500 g/ha,"[11]; 500 g ai/ha, preemergence, 0 to 100 scale where 0 is no effect and 100 is complete control, read-out: Barnyardgrass plant response rating",90%
same,pest or weed control at 125 g/ha,"[11]; Preemergence, 125 g ai/ha, 0 to 100 scale (0 no effect, 100 complete control), read-out: Plant response rating, Barnyardgrass",90%
same,pest or weed control at 500 g/ha,"[12]; 500 g ai/ha, preemergence, 0 to 100 scale where 0 is no effect and 100 is complete control, read-out: Ryegrass, Italian plant response rating",20%
same,pest or weed control at 125 g/ha,"[12]; Preemergence, 125 g ai/ha, 0 to 100 scale (0 no effect, 100 complete control), read-out: Plant response rating, Ryegrass, Italian",0%
same,pest or weed control at 500 g/ha,"[13]; 500 g ai/ha, preemergence, 0 to 100 scale where 0 is no effect and 100 is complete control, read-out: Foxtail, Giant plant response rating",90%
same,pest or weed control at 125 g/ha,"[13]; Preemergence, 125 g ai/ha, 0 to 100 scale (0 no effect, 100 complete control), read-out: Plant response rating, Foxtail, Giant",80%
same,pest or weed control at 500 g/ha,"[14]; 500 g ai/ha, preemergence, 0 to 100 scale where 0 is no effect and 100 is complete control, read-out: Ragweed plant response rating",50%
same,pest or weed control at 125 g/ha,"[14]; Preemergence, 125 g ai/ha, 0 to 100 scale (0 no effect, 100 complete control), read-out: Plant response rating, Ragweed",40%
same,pest or weed control at 500 g/ha,"Kochia (Kochia scoparia) [15]; 500 g ai/ha, preemergence, 0 to 100 scale where 0 is no effect and 100 is complete control, read-out: Kochia plant response rating",60%
same,pest or weed control at 125 g/ha,"Kochia (Kochia scoparia) [15]; Preemergence, 125 g ai/ha, 0 to 100 scale (0 no effect, 100 complete control), read-out: Plant response rating, Kochia",60%

# Reference: patent US12077503B2, “Substituted cyclic amides and their use as herbicides” (FMC CORPORATION, priority 2015, dated 2024)
